For test [1], the system named is Hepatocyte. The test is described as follows: Hepatoprotective activity against CCL4-induced rat hepatocyte toxicity assessed as decrease in ALT level at 1 uM preincubated for 30 mins followed by CCL4 addition and measured after 180 mins by colorimetric method. It counts as functional. Set-up: scale not given: the % may be the effect or the level left. As to conditions: time 210 min.

Test [2] has as its system Hepatocyte. The test is described as follows: Hepatoprotective activity against CCL4-induced rat hepatocyte toxicity assessed as decrease in TNF-alpha level at 1 uM preincubated for 30 mins followed by CCL4 addition and measured after 180 mins by ELISA. It counts as functional. Details: scale not given: the % may be the effect or the level left. As to conditions: time 210 min. A general note: ELISA stands for enzyme-linked immunosorbent assay.

In test [3] the test system is Hepatocyte. The test is described as follows: Hepatoprotective activity against CCL4-induced rat hepatocyte toxicity assessed as decrease in IL-1beta level at 1 uM preincubated for 30 mins followed by CCL4 addition and measured after 180 mins by ELISA. It counts as functional. Details: scale not given: the % may be the effect or the level left. The settings on record: time 210 min.

The test system of test [4] is Hepatocyte. The test is described as follows: Hepatoprotective activity against CCL4-induced rat hepatocyte toxicity assessed as decrease in TBARS level by measuring MDA formation at 1 uM preincubated for 30 mins followed by CCL4 addition and measured after 180 mins by TBARS method. As to conditions: time 210 min. It counts as functional. Set-up: scale not given: the % may be the effect or the level left.

Test [5] concerns Rattus norvegicus. Briefly: Antiinflammatory activity in rat model of ethyl phenylpropiolate-induced ear edema assessed as 30% reduction in ear thickness administered topically and measured after 30 mins. It counts as functional. As to conditions: 0.5 h.
In test [6] the test system is Rattus norvegicus. Briefly: Antiinflammatory activity in rat model of carrageenan-induced hind paw edema assessed as reduction in paw thickness at 100 mg/kg,ip 30mins before carrageenin exposure and measured after 3 hrs. Details: scale not given: the % may be the effect or the level left. It counts as functional. For orientation: In the carrageenan paw model, swelling and tenderness develop within hours.

The test system of test [7] is Rattus norvegicus. The test is described as follows: Antiinflammatory activity in rat model of ethyl phenylpropiolate-induced ear edema assessed as 30% reduction in ear thickness administered topically and measured after 1 hr. It counts as functional.
Test [8] concerns RAW264.7. Briefly: Antiinflammatory activity in mouse RAW264.7 cells assessed as inhibition of LPS-induced NO production incubated for 24 hrs by Griess reagent based analysis. It counts as functional, cell-based. As to conditions: RAW264.7, 24 h. In general terms: Nitrite, measured by Griess reagent, commonly stands in for NO production.
The subject of test [9] is RAW264.7. Briefly: Antiinflammatory activity in mouse RAW264.7 cells assessed as inhibition of LPS-induced TNFalpha production preincubated for 1 hr followed by LPS stimulation and measured after 18 hrs by immunoassay. It counts as functional, cell-based.
The test system of test [10] is RAW264.7. Briefly: Antiinflammatory activity in mouse RAW264.7 cells assessed as inhibition of LPS-induced NF-kappaB expression preincubated for 1 hr followed by LPS stimulation and measured after 18 hrs by qPCR analysis. It counts as functional, cell-based.
In test [11] the test system is RAW264.7. The test is described as follows: Antiinflammatory activity in mouse RAW264.7 cells assessed as inhibition of LPS-induced iNOS expression at 25 uM. It counts as functional.
The subject of test [12] is RAW264.7. Briefly: Antiinflammatory activity in mouse RAW264.7 cells assessed as inhibition of LPS-induced NO production incubated for 20 hrs by Griess reagent based microplate reader analysis. It counts as functional, cell-based. As to conditions: RAW264.7, 20 h.
Test [13] relates to U-937. The test is described as follows: Antiinflammatory activity in PMA-stimulated human U-937 cells assessed as inhibition of TNFalpha secretion at 1 ug/ml by ELISA. It counts as functional.
Test [14] has as its system U-937. Briefly: Antiinflammatory activity in PMA-stimulated human U-937 cells assessed as inhibition of IL-1beta protein expression at 1 ug/ml by western blot analysis. It counts as functional.
Test [15] concerns U-937. Briefly: Antiinflammatory activity in PMA-stimulated human U-937 cells assessed as inhibition of IL-1beta secretion at 1 ug/ml by ELISA. It counts as functional.
Test [16] deals with Rattus norvegicus. Briefly: Antiinflammatory activity in Wistar rat model of carrageenan-induced paw edema assessed as reduction in paw thickness at 10 mg/kg,po and measured after 5 hrs. It counts as functional. Set-up: scale not given: the % may be the effect or the level left.
Test [17] relates to Mus musculus. The test is described as follows: Antiinflammatory activity in TPA-induced ear edema ICR mouse model assessed as inhibition of ear inflammation at 1 ug, TOP for 30 mins followed by TPA addition and measured after 6 hrs. It counts as functional. The settings on record: dose 1 µg, time 390 min, 6.5 h.
Test [18] has as its system RAW264.7. Briefly: Antiinflammatory activity in mouse RAW264.7 cells assessed as inhibition of KLA-induced TNFalpha expression at 0.06 mg/ml and measured after 24 hrs by ELISA. It counts as functional.
Test [19] has as its system RAW264.7. Briefly: Antiinflammatory activity in mouse RAW264.7 cells assessed as inhibition of LPS-induced NO production at 10 ug/ml incubated for 20 hrs by Griess reagent based microplate reader analysis. It counts as functional.
Test [20] has as its system Mus musculus. The test is described as follows: Antiinflammatory activity in ICR mouse model of TPA-induced ear edema assessed as inhibition of ear inflammation at 1 mg,TOP for 30 mins followed by TPA addition and measured after 6 hrs. It counts as functional. The settings on record: time 390 min, 6.5 h.
The test system of test [21] is RAW264.7. The test is described as follows: Antiinflammatory activity in mouse RAW264.7 cells assessed as inhibition of LPS-induced TNF-alpha production. It counts as functional, cell-based.
For test [22], the system named is RAW264.7. The test is described as follows: Antiinflammatory activity in mouse RAW264.7 cells assessed as inhibition of LPS-induced IL-6 production. It counts as functional, cell-based.
Test [23] relates to RAW264.7. Briefly: Antiinflammatory activity in mouse RAW264.7 cells assessed as inhibition of LPS-induced IL-1beta production. It counts as functional, cell-based.
Test [24] has as its system RAW264.7. Briefly: Antiinflammatory activity in mouse RAW264.7 cells assessed as inhibition of LPS-induced NO production for 24 hrs by colorimetric analysis. It counts as functional, cell-based. As to conditions: RAW264.7, 24 h.
The nature of test [25]: Inhibition of COX in bovine seminal vesicle assessed as reduction in PGE2 production using arachidonic acid as substrate. It counts as tissue-based, Bos taurus.
Test [26] deals with Mus musculus. Briefly: Antiinflammatory activity in ICR mouse model of TPA-induced ear edema assessed as inhibition of ear inflammation at 20 uM,TOP for 30 mins followed by TPA addition and measured after 5 hrs. It counts as functional. The settings on record: 5.5 h, time 330 min.
Test [27] addresses T1, Polyunsaturated fatty acid 5-lipoxygenase (Homo sapiens, UniProt P09917).
T1 sequence (P09917 whole entry): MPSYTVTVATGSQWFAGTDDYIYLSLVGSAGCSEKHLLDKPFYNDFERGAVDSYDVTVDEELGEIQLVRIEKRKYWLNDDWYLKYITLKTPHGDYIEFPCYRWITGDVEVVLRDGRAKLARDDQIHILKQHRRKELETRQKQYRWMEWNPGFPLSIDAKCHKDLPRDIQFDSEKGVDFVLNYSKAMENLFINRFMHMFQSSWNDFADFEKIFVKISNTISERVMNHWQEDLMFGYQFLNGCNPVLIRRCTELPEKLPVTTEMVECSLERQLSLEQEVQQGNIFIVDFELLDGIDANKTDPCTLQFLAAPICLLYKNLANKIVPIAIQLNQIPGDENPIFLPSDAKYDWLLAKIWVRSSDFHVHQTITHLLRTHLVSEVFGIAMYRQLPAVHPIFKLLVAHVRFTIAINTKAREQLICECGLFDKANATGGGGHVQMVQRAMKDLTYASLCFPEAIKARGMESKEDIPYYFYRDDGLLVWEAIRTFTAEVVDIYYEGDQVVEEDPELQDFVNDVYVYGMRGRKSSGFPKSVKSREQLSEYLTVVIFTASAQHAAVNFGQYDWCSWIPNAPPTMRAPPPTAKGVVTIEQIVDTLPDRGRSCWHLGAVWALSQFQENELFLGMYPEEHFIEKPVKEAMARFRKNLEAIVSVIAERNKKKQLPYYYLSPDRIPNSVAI
Briefly: Inhibition of 5-LOX in human neutrophils assessed as reduction in 5-HETE formation preincubated for 5 mins followed by arachidonic acid and A23187 addition and measured after 5 mins by RP-HPLC analysis. It counts as cell-based, Neutrophil.

In test [28] the test system is Zingiber officinale. The test is described as follows: Inhibition of prostaglandin biosynthesis in ginger. It counts as functional, organism-based.

Each structure is given as a SMILES string.

Regarding `COc1cc(CCC(=O)CCCCc2ccc(O)c(O)c2)ccc1O`, the Activity is reported as 56.3% in [1], 43.8% in [2], 58.8% in [3] and 60.4% in test [4].
Turning to `OC(CC/C=C/c1ccccc1)CCc1ccccc1` (stereo not drawn), the ID30 in test [5] was determined as 35 µg; in test [7], 28 µg. In addition, the Activity in [6] is 30%.
As to `COc1c2ccc(c1O)CCCCC(=O)CCc1ccc(O)c(c1)O2`, the IC50 (commonly the midpoint of a concentration-inhibition curve) in test [8] came to 18.5 µM; in [9] it was 22.9 µM; in test [10], 9.2 µM.
For `COc1cc(CCC(O)CC(O)CCc2ccc(O)c(O)c2)ccc1O` (stereo not drawn), the inhibition (usually how much of the control response was suppressed) at 25 µM in test [11] was found to be 32%. Moreover, the IC50 in [12] amounted to 22.8 µM.
As for `Oc1ccc(CCC(O)CC/C=C/c2ccccc2)cc1` (stereo not drawn), the inhibition at 1 µg/mL in [13] amounted to 19%; in test [14], 58%; in test [15], 20%.
`O=C(/C=C/CCc1ccccc1)CCc1ccccc1`: the inhibition at 25 µM in test [11] was found to be 71%. The Activity in [16] worked out at 4.7%. The IC50 in test [12] came out at 6.8 µM. The ID50 in test [17] is 2.7 µmol. In addition, the inhibition at 60 µg/mL in test [18] was found to be 38%.
As for `COc1cc(CCC(=O)CC(O)CCc2ccc(O)c(OC)c2)ccc1O` (stereo not drawn) [HEXAHYDROCURCUMIN], the inhibition at 10 µg/mL in test [19] was found to be 32%. Moreover, in test [12], the IC50 was greater than 30 µM.
With `COc1cc(CC[C@@H](CCCCc2cc(O)c(O)c(O)c2)OC(C)=O)cc(OC)c1O`, the Activity in test [1] is listed as 61.1%; in test [2] it was 38.6%; in test [3], 63.6%; in test [4], 67.1%.
Regarding `O=c1c(O)c(-c2ccc(O)c(O)c2)oc2cc(O)cc(O)c12` [QUERCETIN], the ID50 in [20] is 1.6 mg. Also, the figures for the IC50 in test [21], in test [22] and in test [23] were 13.6 µM, 16.8 µM and 16.9 µM, respectively.
On to `Oc1ccc(CCC(O)/C=C/C=C/c2ccccc2)cc1` (stereo not drawn), for which, in [24], the 50% inhibitory concentration (IC50) was 0.66 µM.
In the case of `COc1cc2cc(c1O)-c1cc(ccc1O)CC[C@H](O)CCCC2`, the IC50 was 19.5 µM in test [21], 20.3 µM in test [22] and 17.9 µM in test [23].
On to `COc1cc(CCC(=O)CCCCc2ccccc2)ccc1O`, for which the IC50 in test [25] was found to be 16 µM; in test [27], 5.4 µM; in test [28], 0.5 µM. Besides, the inhibition in vivo (usually how much of the control response was suppressed) at 20 µM in [26] came out at 43%.

The values are drawn from ChEMBL document CHEMBL5233262, “Anti-inflammatory activity of naturally occuring diarylheptanoids - A review” (Bioorg Med Chem, 2021).
